Reference: patent US9895352B2, “Indolinone compounds and uses thereof” (Oncternal Therapeutics, Inc., priority 2014, dated 2018)
“And” between values parts separate entries of the source, which are not always exact repeats. Equal values may be shown once. Read-outs that look alike come from different tables or passages of the source.

Experiments:
[1] = tested on: SKES cells (Ewing Sarcoma cell line); experiment: CCK-8 tetrazolium tumor cell growth inhibition, SKES; assay type: cell-based; conditions: Homo sapiens
Procedure: (§1) A modified tetrazolium salt assay using the CCK-8 kit (Sigma-Aldrich; St Louis, Mo.) was used to measure the inhibition of human tumor cell growth. Tumor cells (5000-7500 per well) were added to 96 well plates and allowed to attach for 4-5 hours. Compounds were serially diluted and added in triplicate at a concentration of 0.02 to 5 μM. DMSO was included as a vehicle control. Cells were incubated in the presence of compound for 3 days. After incubation CCK-8 reagent was added to each well and incubated for 2-4 hours. Viable cells were quantitated spectrophotometrically at a wavelength of 450 nm. Percent viability of each sample was calculated from the A450 values as follows: % viability=(A450 nm sample/A450 nm DMSO-treated cells×100). […] IC50 activities of particular compounds were determined using SKES cells (Ewing Sarcoma cell line).

A4573 = experiment: CCK-8 tetrazolium tumor cell growth inhibition, A4573; assay type: cell-based; conditions: Homo sapiens; A4573, ES, EWS-FLI1 Type 3
Procedure: as §1

TC71 = experiment: CCK-8 tetrazolium tumor cell growth inhibition, TC71; assay type: cell-based; conditions: Homo sapiens, TC-71; TC71, ES, EWS-FLI1 Type 1
Procedure: as §1

LNCap = experiment: CCK-8 tetrazolium tumor cell growth inhibition, LNCap; assay type: cell-based; conditions: Homo sapiens, Prostate, rearranged ETV1
Procedure: as §1

PC3 = experiment: CCK-8 tetrazolium tumor cell growth inhibition, PC3; assay type: cell-based; conditions: Homo sapiens, PC-3; PC3, Prostate, no ETS rearrangement
Procedure: as §1

MDA-MB-231 = experiment: CCK-8 tetrazolium tumor cell growth inhibition, MDA-MB-231; assay type: cell-based; conditions: Homo sapiens; MDA-MB-231, Breast, increased ETV1
Procedure: as §1

MCF7 = experiment: CCK-8 tetrazolium tumor cell growth inhibition, MCF7; assay type: cell-based; conditions: Homo sapiens; MCF7, Breast, no ETS rearrangement
Procedure: as §1

BxPC3 = experiment: CCK-8 tetrazolium tumor cell growth inhibition, BxPC3; assay type: cell-based; conditions: Homo sapiens, BXPC-3; BxPC3, Pancreas, increased FLI1
Procedure: as §1

PANC1 = experiment: CCK-8 tetrazolium tumor cell growth inhibition, PANC1; assay type: cell-based; conditions: Homo sapiens, PANC-1; PANC1, Pancreas, no ETS rearrangement
Procedure: as §1

A4573 tumor cells [2] = experiment: A4573 xenograft study in mice; assay type: in vivo; conditions: A4573 tumors, 200 mg/kg bid oral, relative to vehicle control
A4573 tumor cells [3] = experiment: similar rat xenograft study; assay type: in vivo; conditions: compared to the vehicle control
[4] = Pharmacokinetics after IV and oral administration; assay type: in vivo; conditions: BALB/c mice or Sprague Dawley rats; for Cmax / Tmax / bioavailability / half-life: plasma; for Tmax: read-out: Tmax
Procedure: Certain pharmacokinetics parameters were determined for certain compounds in vivo for intravenous and oral administration. Briefly, compounds were formulated and administered using IV bolus, continuous IV infusion or oral administration. Blood was collected at multiple time points over 24 hours and processed into plasma. Plasma was analyses for parent using LC/MS/MS. Certain parameters for certain compounds were obtained in duplicate.

[5] = human liver microsome, no cofactor, 60 min
[6] = rat liver microsome, no cofactor, 60 min
[7] = mouse liver microsome, no cofactor, 60 min
[8] = dog liver microsome, no cofactor, 60 min
in vitro [9] = conditions: rat
in vitro [10] = conditions: dog
[11] = Half-life in mouse hepatocytes; assay type: in vitro ADME; conditions: read-out: Half life of cmpds
Procedure: (§2) In another study, metabolism of compounds in hepatocytes from various species was examined. Hepatocytes were contacted with a compound, and the half-life of the compound was determined.

[12] = Half-life in rat hepatocytes; assay type: in vitro ADME; conditions: read-out: Half life of cmpds
Procedure: as §2

[13] = Half-life in dog hepatocytes; assay type: in vitro ADME; conditions: read-out: Half life of cmpds
Procedure: as §2

[14] = Half-life in human hepatocytes; assay type: in vitro ADME; conditions: read-out: Half life of cmpds
Procedure: as §2

in vitro [15] = conditions: human liver microsomes
in vitro [16] = conditions: mouse, liver microsomes
[17] = 72 h, SKES cells, 3 days with compound, CCK-8 (TABLE 3)
[18] = 20 mg/kg po, labrasol/tetraglycol 9:1
[19] = 20 mg/kg po, labrasol:tetraglycol:water 72:8:20
[20] = iv, 5 mg/kg, 5 mg/kg IV, captisol
[21] = po, 20 mg/kg, 20 mg/kg po, labrasol/tetraglycol 9:1
[22] = po, 20 mg/kg, 20 mg/kg po, labrasol:tetraglycol:water 72:8:20

Row | Structure (SMILES) | IC50 [1, 17] [µM] | IC50 ([1]; SKES, ES, EWS-FLI1 Type 2) [µM] | AUC ([4]; 5 mg/kg IV, captisol) | AUC [4, 18] | AUC [4, 19] | Cmax [4, 20] [ng/mL] | Tmax [4, 20] [min] | Cmax [4, 21] [ng/mL] | bioavailability [4, 21] [%] | half-life [4, 21] [min] | Tmax [4, 21] [min] | Cmax [4, 22] [ng/mL] | bioavailability [4, 22] [%] | half-life [4, 22] [min] | Tmax [4, 22] [min] | Remaining (NCF = 60 min) [5] [%] | also measured
1 | COc1ccc(C(=O)CC2(O)C(=O)Nc3c(Cl)ccc(Cl)c32)cc1 (single isomer, unassigned) [Cmpd 2, 4,7-Dichloro-3-hydroxy-3-[2-(4-methoxyphenyl-2-oxoethyl)]-1,3-dihydroindol-2-one] | < 5 | < 5 | 1991 h * (ng/mL) | 3896 h * (ng/mL) and 3890 h * (ng/mL) | 4574 h * (ng/mL) | 9380 | 1.98 | 2240 | 40 | 96 | 60 | 2840 | 47 | 90 | 60 | 112.1 | IC50 (A4573): < 5 µM; IC50 (TC71): < 5 µM; IC50 (LNCap): < 5 µM; IC50 (PC3): > 5 µM; IC50 (MDA-MB-231): < 5 µM; IC50 (MCF7): > 5 µM; IC50 (BxPC3): < 5 µM; IC50 (PANC1): > 5 µM; tumor growth inhibition (TGI) (A4573 tumor cells [2]): did not show TGI; tumor growth inhibition (TGI) (A4573 tumor cells [3]): 87%; % F [4, 18]: 49%; % F [4, 19]: 57%; Remaining (NCF = 60 min) [6]: 92.7%; Remaining (NCF = 60 min) [7]: 90.2%; Remaining (NCF = 60 min) [8]: 100.6%; half-life (in vitro [9]; microsomes): 3.8 min; half-life (in vitro [10]; microsomes): 30.3 min
2 | O=C(CC1(O)C(=O)Nc2c(Cl)ccc(Cl)c21)c1ccc(N2CCCC2)cc1 (single isomer, unassigned) [Cmpd 18, 4,7-Dichloro-3-hydroxy-3-(2-oxo-2-(4-(pyrrolidin-1-yl)phenyl)ethyl)indolin-2-one] | < 5 | < 5 | 3738 h * (ng/mL) | 7497 h * (ng/mL) | 11029 h * (ng/mL) | 14300 | 1.98 | 3220 | 50 | 84 | 60 | 6420 | 74 | 54 | 60 | 99.4 | half-life [11]: 60 min; half-life [12]: 18.8 min; half-life [13]: 30.6 min; half-life [14]: 63.6 min; half-life [4, 20]: 48 min; half-life (in vitro [15]): 23 min; half-life (in vitro [9]; liver microsomes): 1.3 min; half-life (in vitro [16]): 9.6 min; half-life (in vitro [10]; liver microsomes): 24.1 min
